Assay results: paper PMC2959035, “Comparative biochemical analysis of recombinant reverse transcriptase enzymes of HIV-1 subtype B and subtype C” (Retrovirology, 2010)
Read-outs that look alike come from different tables or passages of the source.

Columns and labels:
Test in all cases: RNA-dependent DNA polymerase assay, [3H]-dTTP incorporation
Assay type in all cases: biochemical
[1] = biological target: T1, B RT-1 (HIV-1 subtype B RT, NL4-3) (Human immunodeficiency virus type 1 (NEW YORK-5 ISOLATE), UniProt P12497)
T1 construct: gene gag-pol; p66/p51 heterodimer cut from the Pol (Gag-Pol) polyprotein; plasmid pbRT6H-PROT with co-expressed HIV-1 protease; 6-His tag; E. coli M15; Ni-NTA, DEAE- and SP-Sepharose; with p51 RT of Gag-Pol polyprotein
Text: RNA-dependent DNA polymerase assay, [3H]-dTTP incorporation on B RT-1 (HIV-1 subtype B RT, NL4-3)

[2] = biological target: T2, C RT-2 (HIV-1 subtype C RT, isolate M01) (HIV-1 M:C_92BR025, UniProt O12158); conditions: HIV-1 PBS RNA/dPR template/primer 30 nM, dNTPs 5 μM each, 6 mM MgCl2, 60 mM KCl, pH 7.8, 37°C, 30 min, read-out: IC50 (μM)^a / C RT-2 ^e
T2 construct: gene gag-pol; p66/p51 heterodimer cut from the Pol (Gag-Pol) polyprotein; His-tagged, E. coli; with p51 RT of Gag-Pol polyprotein
Text: RNA-dependent DNA polymerase assay, [3H]-dTTP incorporation on C RT-2 (HIV-1 subtype C RT, isolate M01)

[3] = biological target: T3, B RT-2 (HIV-1 subtype B RT, HXB2) (HIV-1 M:B_HXB2R, UniProt P04585)
T3 construct: gene gag-pol; p66/p51 heterodimer cut from the Pol (Gag-Pol) polyprotein; plasmid pRT6H-PROT with co-expressed HIV-1 protease; 6-His tag; E. coli M15; Ni-NTA, DEAE- and SP-Sepharose; with p51 RT of Gag-Pol polyprotein
Text: RNA-dependent DNA polymerase assay, [3H]-dTTP incorporation on B RT-2 (HIV-1 subtype B RT, HXB2)

[4] = nucleotide analogue, competitive at active site
[5] = NNRTI, non-competitive allosteric
[6] = read-out: IC50 (μM)^a / B RT-2^c
[7] = read-out: IC50 (μM)^a / B RT-1^b

Row | SMILES | IC50 [2, 4] [µM] | IC50 [2, 5] [µM] | IC50 [3, 6] [µM] | IC50 [1, 7] [µM] | further results
1 | Nc1ccn([C@@H]2CS[C@H](COP(=O)(O)OP(=O)(O)OP(=O)(O)O)O2)c(=O)n1 [3TC-TP] | 4.1 ± 0.4 |  |  |  | IC50 [1]: 2.7 ± 0.3 µM
2 | O=C1Nc2ccc(Cl)cc2[C@@](C#CC2CC2)(C(F)(F)F)O1 [EFV] |  | 0.18 ± 0.02 |  |  | 
3 | Cc1cc(C#N)cc(C)c1Oc1nc(Nc2ccc(C#N)cc2)nc(N)c1Br [ETR] |  | 0.19 ± 0.03 | 0.16 ± 0.02 | 0.17 ± 0.03 | 
4 | Cc1ccnc2c1NC(=O)c1cccnc1N2C1CC1 [NVP] |  | 4.3 ± 0.3 |  |  | 
5 | C[C@H](Cn1cnc2c(N)ncnc21)OCP(=O)(O)OP(=O)(O)OP(=O)(O)O [TFV-DP] | 2.9 ± 0.4 |  | 2.1 ± 0.3 | 2.5 ± 0.3 | 
6 | Cc1cn([C@H]2C[C@H](N=[N+]=[N-])[C@@H](CO[P@](=O)(O)O[P@](=O)(O)OP(=O)(O)O)O2)c(=O)[nH]c1=O [ZDV-TP] |  |  |  |  | IC50 [3]: 2.9 ± 0.4 µM; IC50 ([2]; 150 μM sodium pyrophosphate included, nucleotide analogue, competitive at active site): 3.8 ± 0.5 µM
